Key:
[1] = system: Korean subjects with hypertension associated with dyslipidemia; experiment: Phase 3 clinical study, variability of SBP and DBP reduction; format: in vivo, human (Korean subjects); conditions: once daily up to 8 weeks; olmesartan medoxomil 40 mg
Method: Hypertension therapy effectiveness was evaluated by evaluating the variability of systolic blood pressure (SBP) and diastolic blood pressure (DBP) reduction following dosing with olmesartan single agent (OM) or a fixed dosage composition comprising olmesartan and rosuvastatin (OM/RC FDC). […] The study was a multi-site, randomized, double-blind, placebo-controlled, factorial, 4 arm, 8 week Phase 3 clinical study of Korean subjects with hypertension associated with dyslipidemia aged between 20 and 80 years. Following a 4-week therapeutic lifestyle-change period that included a washout period, eligible patients were randomized in a 2:1:1:1 ratio to receive either OM/RC FDC, olmesartan medoxomil 40 mg, rosuvastatin calcium 20 mg, or placebo, once daily, for up to 8 weeks. A total of 183 subjects were randomized (72 subjects in OM/RC FDC, 39 subjects in olmesartan medoxomil 40 mg, 38 subjects in rosuvastatin calcium 20 mg, and 34 subjects in placebo). Among the 183 randomized subjects, 181 subjects took the investigational drug (ST-101/OM/RC FDC), 162 subjects completed the study, and 21 of […] subjects were discontinued from the study. The SBP and DBP reduction was highly variable. FIG. 2 compares the variability of systolic blood pressure (SBP) reduction after dosing with olmesartan single agent (olmesartan) or olmesartan/rosuvastatin fixed dose combination (OM/RC FDC, ST-101). […]

[2] = system: patients with hypertension; experiment: Dose response of blood pressure reduction, analysis of 21 published clinical studies; format: in vivo, human; conditions: olmesartan medoxomil 5 to 80 mg monotherapy, 21 clinical studies
Method: PubMed database was searched to identify relevant scientific and review articles from June 2001 to June 2015 using the search terms olmesartan efficacy, response, effect/clinical trial. Reference lists of included articles were reviewed to locate additional references of interest. PD studies with olmesartan medoxomil dose range from 5 to 80 mg monotherapy were selected. PD response and demographic data from a total of 10,770 patients with hypertension in 21 clinical studies were included in the analysis (Oparil S, Williams D, Chrysant S G, Marbury T C, Neutel J. (2001). Comparative efficacy of olmesartan, losartan, valsartan, and irbesartan in the control of essential hypertension. J Clin Hypertens (Greenwich) 2001; 3(5):283-318; Püchler K, Laeis P, Stumpe K O. Blood pressure response, but not adverse event incidence, correlates with dose of angiotensin II antagonist. J Hypertens Suppl 2001 June; 19(1):S41-8; Neutel J M, Elliott W J, Izzo J L, Chen C L, Masonson H N. Antihypertensive efficacy of olmesartan medoxomil, a new angiotensin II receptor antagonist, as assessed by ambulatory blood pressure measurements. […] J Hum Hypertens 2002; 16(Suppl 2):S24-8; Brunner H R, Stumpe K O, Januszewicz A. Antihypertensive efficacy of olmesartan medoxomil and candesartan cilexetil assessed by 24-hour ambulatory blood pressure monitoring in patients with essential hypertension. […]

[3] = set-up: species or system healthy subjects (Asian and non-Asian); conditions: in vivo
Description: PubMed database was searched to identify relevant scientific and review articles from May 2001 to June 2015 using the search term olmesartan PK. Reference lists of included articles were reviewed to locate additional references of interest. PK studies with single dose AUC of olmesartan medoxomil in healthy subjects were selected. Olmesartan medoxomil AUC from co-administration of olmesartan medoxomil with other drugs or FDC containing olmesartan medoxomil were also included if there was no known drug-drug interaction (DDI). The pharmacokinetic datasets for olmesartan were obtained from published clinical studies across Asian and non-Asian subjects with a dose range from 10 to 160 mg. More than 80% of the studies reported AUC in arithmetic mean. […] PK and demographic data from a total of 895 healthy subjects from 13 clinical studies were included in the final analysis Schwocho L R and Masonson H N. Pharmacokinetics of CS866, a new angiotensin II receptor block, in healthy subjects. J Clin Pharmacol 2001; 41:515-27; von Bergmann K, Laeis P, Pilchler K, Sudhop T, Schwocho L R, Gonzalez L. Olmesartan medoxomil: influence of age, renal and hepatic function on the PK of olmesartan medoxomil. […]

[4] = set-up: species or system Korean healthy males; conditions: in vivo
Method: Drug exposure as AUC was studied among Korean healthy males aged between 20 and 50 years in two clinical studies: (1) a randomized, open-label, multiple-dose, cross-over study of 36 subjects divided into 6 cohorts and treated over 3 periods (subjects were administered either 1 tablet of 40 mg olmesartan medoxomil, 1 tablet of 20 mg rosuvastatin calcium, or a 1 tablet each of both agents (fixed dosage composition, single dose form) orally every 24 hours for 7 days, with an 8-day washout period separating the individual treatment courses) and (2) a randomized, open-label, single-dose, cross-over study of 58 subjects divided into 2 cohorts and treated over 2 periods (Son H, Roh H, Lee D, Chang H, Kim J, Yun C, et al. Pharmacokinetics of rosuvastatin/olmesartan fixed-dose combination: a single-dose, randomized, open-label, 2-period crossover study in healthy Korean subjects. Clin Ther 2013; 35:915-22) (one tablet of ST-101, also known as olmesartan/rosuvastatin FDC, tablet of 40 mg olmesartan medoxomil/20 mg rosuvastatin calcium was administered once orally as the test drug, or 1 tablet each of 40 mg olmesartan medoxomil and 20 mg rosuvastatin calcium was co-administered once orally as the comparator; eligible subjects were randomly assigned to 2 groups (test arm vs comparator arm) in a 1:1 ratio; each subject received a single dose of the FDC or the comparator orally in a fasted state, with a 7-day washout period between the administrations.
A total of 34 volunteers in study 1 and 54 volunteers in study 2 were evaluated for olmesartan pharmacokinetic (PK) analysis. For PK analyses, blood samples were collected at 0 (pre-dose), 0.5, 2, 2.5, 3, 4, 5, 6, 7, 8, 10, 12, 16, 24, 48 hour after dosing of olmesartan either as FDC or as single agent.
FIG. 1 compares individual values of olmesartan AUC when dosed as either olmesartan single agent (OM) or olmesartan/rosuvastatin (OM/RC) fixed dose composition (FDC). […] The coefficient of variations were 29.95% and 24.42% for olmesartan single agent and OM/RC FDC, respectively. The tabulated summary of the data including Gaussian tests are shown below in Table 1.
FIG. 6 illustrates the linear correlation between the first and second pharmacokinetic determinations (AUC) for olmesartan. The linear regression is described by the following equation: Y=0.9782*X. The p value of significant deviation from 0 is less than 0.0001.

## CCCc1nc(C(C)(C)O)c(C(=O)OCc2oc(=O)oc2C)n1Cc1ccc(-c2ccccc2-c2nnn[nH]2)cc1 [OM Single Agent, olmesartan medoxomil]
[1]
  coefficient of variation for DBP reduction: 79.25%
  coefficient of variation for SBP reduction: 78.24%
[2]
  relationship between DBP reduction and dose (regression analysis): very shallow insignificant relationship
[2]; p=0.04
  correlation between SBP reduction and dose (regression analysis): only weak correlation
[3]
  AUC among Asian subjects versus non-Asian subjects: comparable to AUC in non-Asian subjects at the same dose level
  dependence of AUC on dose: linear dose-dependent increase in AUC from 10 to 160 mg
[4]
  slope of linear regression between first and second AUC determinations (Y=slope*X): 0.9782
[4]; po, 40 mg
  coefficient of variation of olmesartan AUC: 29.95%
  olmesartan AUC, 25% Percentile: 6317
  olmesartan AUC, 75% Percentile: 8916
  olmesartan AUC, Maximum: 17026
  olmesartan AUC, Mean: 7908
  olmesartan AUC, Median: 7450 ng·h/mL
  olmesartan AUC, Minimum: 3899

— US20160199354A1, “METHODS FOR OLMESARTAN DOSING BY AUC” (Autotelic LLC, priority 2015, published 2016)
